Results: US6531478B2, “Amino pyrazole derivatives useful for the treatment of obesity and other disorders” (priority 2000, dated 2003)

Molecular target: T1, human neuropeptide Y5 receptor (Homo sapiens, UniProt Q15761)
T1 construct: expressed in transfected cells; host or cells: HEK-293, stably transfected, G-418 selected; membranes
T1 sequence (Q15761 1-445): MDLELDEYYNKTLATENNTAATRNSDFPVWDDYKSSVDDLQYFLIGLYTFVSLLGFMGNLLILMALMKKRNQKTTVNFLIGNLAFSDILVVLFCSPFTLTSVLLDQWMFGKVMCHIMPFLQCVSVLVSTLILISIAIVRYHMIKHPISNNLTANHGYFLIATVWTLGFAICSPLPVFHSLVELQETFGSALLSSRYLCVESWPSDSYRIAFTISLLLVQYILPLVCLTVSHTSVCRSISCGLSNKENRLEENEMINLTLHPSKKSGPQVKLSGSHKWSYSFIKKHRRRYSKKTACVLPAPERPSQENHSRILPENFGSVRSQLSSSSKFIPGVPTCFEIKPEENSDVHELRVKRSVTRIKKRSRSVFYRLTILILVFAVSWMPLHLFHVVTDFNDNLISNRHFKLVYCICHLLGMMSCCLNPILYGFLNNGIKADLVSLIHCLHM
Assay: NPY5 HTS centrifugation assay: competition with 125I-PYY for binding to membranes of NPY5-transfected HEK-293 cells
Settings: inhibition of 125I-PYY binding; for IC50: values in nM, read-out: IC50 hNPY5
Procedure: NPY5 HTS Centrifugation Assay
The compounds described in this invention were evaluated for binding to the human neuropeptide Y5 receptor.
The human NPY5 receptor cDNA (Genbank Accession number U66275) was inserted into the vector pClneo (Invitrogen) and transfected into human embryonic kidney cells (HEK-293) via Calcium phosphate method (Cullen 1987). Stably transfected cells were selected with G-418 (600 ug/mL). Stably transfected cells served as the source for the membranes for the NPY5 receptor binding assay.
NPY5-transfected HEK293 cells were grown to confluence in 150 cm^2 culture dishes. Cells were washed once with phosphate-buffered saline (Gibco Cat# 14040-133). Cells were then incubated in phosphate-buffered saline without Calcium and without Magnesium, supplemented with 2 mM EDTA. Cells were incubated for 10 minutes at room temperature and the cells were collected by repetitive pipetting. Cells were formed into pellets and frozen at −80 until needed. Frozen pellets were homogenized with a polytron at full speed for 12 seconds in a homogenization buffer (20 mM Tris HCl, 5 mM EDTA, pH 7.4). Homogenates were centrifuged for 5 minutes at 4° C. at 200 g. Supernatants were transferred to corex tubes and centrifuged for 25 minutes at 28,000 g. Pellets were re-suspended in Binding (20 mM HEPES, 10 mM NaCl, 0.22 mM KH2PO4, 1.3 mM CaCl2, 0.8 mM MgSO4, pH 7.4). Membranes were kept on ice until use.
A competition binding assay, known to those skilled in the art, was used in which the test compounds (aminopyrazoles of formula (I) compete with ^1251I-PYY for binding to cell membranes. In simple terms, less ^125I-PYY bound to the membranes implies that the test compound is a good inhibitor (competitor). Bound ^1251I-PYY is determined by centrifugation the membranes, aspirating supernatant, washing away residual ^125I-PYY and subsequently counting the bound sample in a γ-counter.
Procedure for Radioligand Binding Assay
Compounds to be tested were prepared as 10× stocks in binding buffer and added first to assay tubes (RIA vials, Sarstedt). Twenty (20) μL of each 10× compound stock was pipetted into vials and 80 μL of ^125I-PYY (NEN catalog number NEX240), which had been diluted to a concentration of 200 pM in 0.25% BSA in binding buffer, was added to the compound tubes (final concentration of ^125I-PYY is 80 pM). To each tube was added 100 μL of membranes and the mixture was agitated by pipetting 2 times. Samples were incubated for 1 hr at room temperature. Aluminum cast plates (Sarstedt) containing the vials were centrifuged 10 minutes at 3200 rpm in a Sorvall RT6000. Supernatant was then aspirated. To each vial was added 400 μL PBS and the vial was then aspirated again. Vials were put in carrier polypropylene 12×75 tube and counted in gamma counter (Packard). Non-specific binding was determined in the presence of 300 nM NPY. Percent inhibition of ^125I-PYY binding was calculated by subtracting non-specific binding from the test samples (compounds of formula (I)), taking these counts and dividing by total binding, and multiplying by 100. Inhibitory concentration values (IC50) of compounds that show appreciable inhibition of ^125I-PYY binding were calculated by obtaining percent inhibition of ^125I-PYY binding values at different concentrations of the test compound, and using a graphing program such as GraphPad Prism (San Diego, Calif.) to calculate the concentration of test compound that inhibits fifty-percent of ^125I-PYY binding (Table 2). These operations are known to those skilled in the art.

SMILES	% Inh NPY5 @ 3 μM (3 μM test compound) [%]	also measured
Cc1ccc(S(=O)(=O)Nc2ccc(-c3cc(NS(=O)(=O)c4ccc(C)cc4)n(-c4ccccc4C)n3)cc2)cc1 [Cmpd 1]		IC50: 200 nM
O=C(Nc1ccccc1)c1ccc(-c2cc(NS(=O)(=O)c3ccccc3)n(-c3ccccc3)n2)cc1 [Cmpd 4, N-Phenyl-4-[1-phenyl-5-[(phenylsulfonyl)amino]-1H-pyrazol-3-yl]benzamide]		inhibition at 3 µM (3 μM test compound, read-out: % Inh NPY5 @ 3 μM): 0%
O=C(Nc1ccc(F)cc1)c1ccc(-c2cc(NS(=O)(=O)c3ccccc3)n(-c3ccccc3)n2)cc1 [Cmpd 5]	0.00	
Cc1ccc(NC(=O)c2ccc(-c3cc(NS(=O)(=O)c4ccccc4)n(-c4ccccc4)n3)cc2)cc1 [Cmpd 6]	0.00	
COC(=O)c1ccc(-c2cc(N)n(-c3ccccc3)n2)cc1 [Cmpd 7]	13.00	
COC(=O)c1ccc(-c2cc(N(S(=O)(=O)c3ccccc3)S(=O)(=O)c3ccccc3)n(-c3ccccc3)n2)cc1 [Cmpd 8]	0	
O=C(O)c1ccc(-c2cc(NS(=O)(=O)c3ccccc3)n(-c3ccccc3)n2)cc1 [Cmpd 9]	0	
O=C(NCc1ccccc1)c1ccc(-c2cc(NS(=O)(=O)c3ccccc3)n(-c3ccccc3)n2)cc1 [Cmpd 10]	19.00	
O=C(Nc1cccc2ccccc12)c1ccc(-c2cc(NS(=O)(=O)c3ccccc3)n(-c3ccccc3)n2)cc1 [Cmpd 11]	14.00	
O=C(Nc1ccc2ccccc2c1)c1ccc(-c2cc(NS(=O)(=O)c3ccccc3)n(-c3ccccc3)n2)cc1 [Cmpd 12]	2.00	
O=C(c1ccc(-c2cc(NS(=O)(=O)c3ccccc3)n(-c3ccccc3)n2)cc1)N1CCc2ccccc2C1 [Cmpd 13]	12.00	
O=C(c1ccc(-c2cc(NS(=O)(=O)c3ccccc3)n(-c3ccccc3)n2)cc1)N1CCCc2ccccc21 [Cmpd 14]		% Inh NPY5 @ 30 μM (30 μM test compound (stated in cell)): (26.00 @ %
Cc1ccc(-n2nc(-c3ccc(C(=O)Nc4ccccc4)cc3)cc2NS(=O)(=O)c2ccc(C)cc2)cc1 [Cmpd 15]	4.00	
Cc1ccc(-n2nc(-c3ccc(C(=O)Nc4ccc(F)cc4)cc3)cc2NS(=O)(=O)c2ccc(C)cc2)cc1 [Cmpd 16]	1.00	
Cc1ccc(NC(=O)c2ccc(-c3cc(NS(=O)(=O)c4ccc(C)cc4)n(-c4ccc(C)cc4)n3)cc2)cc1 [Cmpd 17]	6.00	
COC(=O)c1ccc(-c2cc(NS(=O)(=O)c3ccccc3)n(-c3ccccc3)n2)cc1 [Cmpd 18]	2.00	
COC(=O)c1ccc(-c2cc(N)n(-c3ccc(C)cc3)n2)cc1 [Cmpd 19]	2.00	
COC(=O)c1ccc(-c2cc(N(S(=O)(=O)c3ccc(C)cc3)S(=O)(=O)c3ccc(C)cc3)n(-c3ccc(C)cc3)n2)cc1 [Cmpd 20]	0.00	
Cc1ccc(-n2nc(-c3ccc(N(S(=O)(=O)c4ccccc4)S(=O)(=O)c4ccccc4)cc3)cc2N)cc1 [Cmpd 22, N-[4-[5-amino-1(4-methylphenyl)-1H-pyrazol-3-yl]phenyl]-N-(phenylsulfonyl)-benzenesulfonamide]		IC50: 514 nM
Cc1ccc(-n2nc(-c3ccc(NS(=O)(=O)c4ccc(C)cc4)cc3)cc2N)cc1 [Cmpd 31]		IC50: 28 nM

Continued, in another order:

% Inh NPY5 @ 3 μM (3 μM test compound) [%]	SMILES	also measured
16.00	Cc1ccc(-n2nc(-c3ccc(C(=O)O)cc3)cc2NS(=O)(=O)c2ccc(C)cc2)cc1 [Cmpd 21]	
16.00	Cc1ccc(-n2nc(-c3ccc(N(S(=O)(=O)c4cccc(C(F)(F)F)c4)S(=O)(=O)c4cccc(C(F)(F)F)c4)cc3)cc2N)cc1 [Cmpd 26]	
0.00	Cc1ccc(-n2nc(-c3ccc(N(S(=O)(=O)c4ccc5ccccc5c4)S(=O)(=O)c4ccc5ccccc5c4)cc3)cc2N)cc1 [Cmpd 27]	
21.00	CC(=O)Nc1ccc(S(=O)(=O)N(c2ccc(-c3cc(N)n(-c4ccc(C)cc4)n3)cc2)S(=O)(=O)c2ccc(NC(C)=O)cc2)cc1 [Cmpd 28]	
16.00	Cc1ccc(-n2nc(-c3ccc(N(S(=O)(=O)c4ccc(OC(F)(F)F)cc4)S(=O)(=O)c4ccc(OC(F)(F)F)cc4)cc3)cc2N)cc1 [Cmpd 29]	
0.00	Cc1ccc(-n2nc(-c3ccc(C(=O)O)cc3)cc2N)cc1 [Cmpd 32]	
